According to US20020068360A1, “Cyclohexanediol cryoprotectant compounds” (priority 2000, published 2002):

System: AV5 cells
Assay: Cell viability (Alamar Blue) of AV5 cells after cryopreservation and warming
Assay type: cell-based, porcine
Conditions: 0 to 1 M CHD added to 1 M DMSO or to DMSO/formamide/propanediol (final 1 M), normalized to conventional cryoprotectant alone, FIGS. 2 and 3
Experimental: A primary cell strain called AV5 was used for these experiments. AV5 cells are derived from porcine heart valve leaflets. Hearts were obtained from pigs and the heart valve leaflets were then removed and washed several times with sterile phosphate-buffered saline (PBS). Small pieces (˜1 mm^2) were cut and placed into a 24-well microtiter plate coated with 0.2% gelatin. Dulbecco's Modified Eagle's Medium (DMEM) with 10% fetal calf serum (FCS) was added to just cover the bottom of the well and the plate was left at 37° C. with 5% CO2 in air until visible outgrowth occurred. […]
Cell viability was then determined using the non-invasive metabolic indicator Alamar Blue (Trek Diagnostics). […] Fluorescence from Alamar Blue was read in a fluorescent microplate reader (Fmax fluorescent microplate reader by […]) using an excitation wavelength of 544 nm and an emission wavelength of 590 nm.
The first set of experiments involved using two CPA compositions, either 1 M dimethyl sulfoxide (DMSO) (left bar of graph at each concentration of 1,3CHD in FIG. 2 and 1,4CHD in FIG. 3) or a combination of DMSO, formamide and propanediol at a final concentration of 1 M (right bar of graph at each concentration of 1,3CHD in FIG. 2 and 1,4CHD in FIG. 3). […] Cell viability was assessed using the assay described above. […]

Row | Compound | relative cell viability after freezing
1 | OC1CCCC(O)C1 (centres unmarked) [1,3CHD, 1,3-cyclohexanediol] | significantly increased
2 | OC1CCC(O)CC1 (centres unmarked) [1,4CHD, 1,4-cyclohexanediol] | significantly increased
